# Like-named read-outs stand apart in the source and are kept apart here.
# Assays:
# [1] = biological target: T1, Cyp1a2 (Mus musculus, UniProt P00186); settings: WT mice; cited from earlier work
# T1 sequence (P00186 2-513): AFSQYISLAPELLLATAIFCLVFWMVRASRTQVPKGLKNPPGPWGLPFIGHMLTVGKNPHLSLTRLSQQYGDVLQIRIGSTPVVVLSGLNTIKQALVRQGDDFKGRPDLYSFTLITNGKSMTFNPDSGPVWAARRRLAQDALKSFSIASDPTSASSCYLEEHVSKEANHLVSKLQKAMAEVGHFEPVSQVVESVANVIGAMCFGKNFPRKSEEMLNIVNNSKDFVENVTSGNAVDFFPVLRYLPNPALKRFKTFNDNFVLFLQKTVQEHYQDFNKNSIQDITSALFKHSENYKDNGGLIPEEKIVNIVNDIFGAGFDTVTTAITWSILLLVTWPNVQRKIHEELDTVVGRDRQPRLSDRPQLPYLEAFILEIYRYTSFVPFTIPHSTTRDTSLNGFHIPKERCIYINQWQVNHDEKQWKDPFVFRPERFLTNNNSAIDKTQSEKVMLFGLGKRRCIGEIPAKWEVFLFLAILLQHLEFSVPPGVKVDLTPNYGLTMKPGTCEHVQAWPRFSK
# [2] = system: Cyp1a2; settings: Cyp1a2-/- mice; cited from earlier work
# [3] = system: Cyp7b1; settings: liver and kidney of Cyp7b-/- mice; cited from earlier work
# [4] = system: Cyp7b1; assay: DHEA metabolism in Cyp7b1 KO rats (transposon insertion)
# [5] = biological target: T2, androgen receptors (AR) (Homo sapiens, UniProt P10275); settings: cited from earlier work
# T2 construct: expressed in transfected cells
# T2 sequence (P10275 1-920): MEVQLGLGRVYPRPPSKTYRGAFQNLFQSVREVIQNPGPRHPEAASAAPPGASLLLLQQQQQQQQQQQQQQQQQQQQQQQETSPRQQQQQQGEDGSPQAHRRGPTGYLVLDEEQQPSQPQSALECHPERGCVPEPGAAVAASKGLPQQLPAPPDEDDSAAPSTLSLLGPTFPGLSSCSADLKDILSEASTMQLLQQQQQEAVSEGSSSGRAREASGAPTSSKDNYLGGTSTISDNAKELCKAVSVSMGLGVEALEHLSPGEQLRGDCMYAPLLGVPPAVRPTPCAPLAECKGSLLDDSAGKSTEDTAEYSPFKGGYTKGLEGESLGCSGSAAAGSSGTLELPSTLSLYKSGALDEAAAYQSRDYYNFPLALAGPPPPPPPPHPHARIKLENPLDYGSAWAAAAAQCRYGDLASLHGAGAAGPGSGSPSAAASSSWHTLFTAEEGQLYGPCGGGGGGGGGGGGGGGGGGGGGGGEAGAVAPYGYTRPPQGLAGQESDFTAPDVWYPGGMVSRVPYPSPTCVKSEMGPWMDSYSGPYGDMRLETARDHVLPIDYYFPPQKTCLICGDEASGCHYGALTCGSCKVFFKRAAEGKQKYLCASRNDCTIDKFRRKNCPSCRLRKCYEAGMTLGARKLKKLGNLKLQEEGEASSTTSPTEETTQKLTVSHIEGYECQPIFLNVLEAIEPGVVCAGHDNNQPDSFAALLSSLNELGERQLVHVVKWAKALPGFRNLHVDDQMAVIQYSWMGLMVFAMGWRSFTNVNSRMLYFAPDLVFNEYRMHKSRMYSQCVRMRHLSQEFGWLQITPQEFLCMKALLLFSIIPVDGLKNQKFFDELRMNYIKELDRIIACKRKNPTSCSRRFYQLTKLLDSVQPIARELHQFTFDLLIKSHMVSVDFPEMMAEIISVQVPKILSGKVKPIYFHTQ
# [6] = biological target: T3, ER-alpha (Homo sapiens, UniProt P03372); settings: cited from earlier work
# T3 construct: expressed in transfected cells
# T3 sequence (P03372 whole entry): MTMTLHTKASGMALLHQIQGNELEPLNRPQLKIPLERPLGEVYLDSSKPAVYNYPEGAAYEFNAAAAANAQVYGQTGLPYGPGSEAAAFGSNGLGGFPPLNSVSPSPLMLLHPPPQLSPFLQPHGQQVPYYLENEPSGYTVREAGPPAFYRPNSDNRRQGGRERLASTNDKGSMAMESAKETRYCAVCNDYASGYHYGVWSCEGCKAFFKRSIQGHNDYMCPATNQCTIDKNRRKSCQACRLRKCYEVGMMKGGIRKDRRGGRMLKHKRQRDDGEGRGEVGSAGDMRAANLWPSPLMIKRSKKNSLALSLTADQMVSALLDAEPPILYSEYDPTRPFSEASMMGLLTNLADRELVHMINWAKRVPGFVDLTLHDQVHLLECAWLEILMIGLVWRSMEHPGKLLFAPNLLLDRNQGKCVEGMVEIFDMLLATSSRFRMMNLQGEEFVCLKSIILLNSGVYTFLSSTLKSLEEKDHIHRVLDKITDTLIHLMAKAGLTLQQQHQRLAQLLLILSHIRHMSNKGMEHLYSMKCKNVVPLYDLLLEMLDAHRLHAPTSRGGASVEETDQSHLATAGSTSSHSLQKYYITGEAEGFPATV
# [7] = biological target: T4, ER-beta (Homo sapiens, UniProt Q92731); settings: cited from earlier work
# T4 construct: expressed in transfected cells
# T4 sequence (Q92731 whole entry): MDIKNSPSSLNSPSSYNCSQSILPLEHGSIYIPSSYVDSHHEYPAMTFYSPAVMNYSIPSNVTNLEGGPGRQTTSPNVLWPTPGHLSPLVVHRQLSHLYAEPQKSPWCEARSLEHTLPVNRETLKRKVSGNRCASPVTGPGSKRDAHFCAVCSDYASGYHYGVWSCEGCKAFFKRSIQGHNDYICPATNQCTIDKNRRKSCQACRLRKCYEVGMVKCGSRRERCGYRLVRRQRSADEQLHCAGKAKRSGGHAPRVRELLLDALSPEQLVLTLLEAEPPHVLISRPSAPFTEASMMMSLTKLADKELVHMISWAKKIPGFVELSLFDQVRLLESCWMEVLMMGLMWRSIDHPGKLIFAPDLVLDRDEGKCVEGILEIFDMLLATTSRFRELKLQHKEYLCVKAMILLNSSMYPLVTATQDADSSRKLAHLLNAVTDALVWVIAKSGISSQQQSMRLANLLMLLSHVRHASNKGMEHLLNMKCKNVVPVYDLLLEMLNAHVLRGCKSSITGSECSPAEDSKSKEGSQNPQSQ
# [8] = biological target: T5, Cyp1a2 (Homo sapiens, UniProt P05177); settings: human populations; cited from earlier work
# T5 sequence (P05177 1-516): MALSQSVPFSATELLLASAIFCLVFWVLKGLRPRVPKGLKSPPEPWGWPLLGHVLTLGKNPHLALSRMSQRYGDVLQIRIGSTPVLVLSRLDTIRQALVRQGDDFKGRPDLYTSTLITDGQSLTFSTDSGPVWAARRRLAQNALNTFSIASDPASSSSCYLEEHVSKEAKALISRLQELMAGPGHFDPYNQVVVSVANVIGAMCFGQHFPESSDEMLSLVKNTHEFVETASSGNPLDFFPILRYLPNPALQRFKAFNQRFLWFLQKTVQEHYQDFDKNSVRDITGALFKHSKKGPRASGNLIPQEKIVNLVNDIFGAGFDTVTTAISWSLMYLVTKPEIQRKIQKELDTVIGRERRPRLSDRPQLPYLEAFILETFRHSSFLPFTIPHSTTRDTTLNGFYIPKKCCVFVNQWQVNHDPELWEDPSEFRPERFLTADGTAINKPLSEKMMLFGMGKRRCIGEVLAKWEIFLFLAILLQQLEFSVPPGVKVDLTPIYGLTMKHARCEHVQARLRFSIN
# [9] = system: Cyp3a; settings: cited from earlier work
# [10] = system: Cyp3a; settings: cited from earlier work; remark: listed apart in the source
# [11] = system: Cyp2e1; settings: Cyp2e1-/- mice; cited from earlier work
# [12] = biological target: Cyp2e1 (Mus musculus, UniProt Q05421); settings: mouse, in vivo, 400 mg/kg; cited from earlier work
# Chain of Cyp2e1 (Mus musculus, UniProt Q05421) (Q05421 whole entry): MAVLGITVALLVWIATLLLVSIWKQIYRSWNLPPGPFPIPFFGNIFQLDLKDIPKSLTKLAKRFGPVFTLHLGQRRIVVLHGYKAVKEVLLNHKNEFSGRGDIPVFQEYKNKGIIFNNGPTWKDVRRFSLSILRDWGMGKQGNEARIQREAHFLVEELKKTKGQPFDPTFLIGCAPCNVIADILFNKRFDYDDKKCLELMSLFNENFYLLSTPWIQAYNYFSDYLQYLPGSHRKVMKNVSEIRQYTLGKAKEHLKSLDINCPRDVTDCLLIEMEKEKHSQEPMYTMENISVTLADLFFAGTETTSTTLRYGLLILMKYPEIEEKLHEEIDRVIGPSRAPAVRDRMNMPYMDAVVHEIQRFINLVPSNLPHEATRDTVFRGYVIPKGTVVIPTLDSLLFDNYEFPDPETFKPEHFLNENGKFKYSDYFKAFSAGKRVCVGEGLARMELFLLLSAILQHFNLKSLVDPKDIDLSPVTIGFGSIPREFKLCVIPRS
compound,measurement,setting,value
"Clc1cc2c(cc1Cl)Oc1cc(Cl)c(Cl)cc1O2 [TCDD, 2,3,7,8-Tetrachlorodibenzo-p-dioxin]",liver-to-adipose (L/F) ratio,[1],3.6
same,liver-to-adipose (L/F) ratio,[2],0.2
"C[C@]12CC[C@H](O)CC1=CC[C@@H]1[C@@H]2CC[C@]2(C)C(=O)CC[C@@H]12 [DHEA, dehydroepiandrosterone]",DHEA conversion to 7D,[3],significantly altered
same,metabolism of DHEA to 7α-hydroxy-DHEA,[4],unable to metabolize
C[C@]12CC[C@H](O)CC1=C[C@@H](O)[C@@H]1[C@@H]2CC[C@]2(C)C(=O)CC[C@@H]12 [7-alpha-hydroxy-DHEA],receptor activation,[5],activates
same,receptor activation,[6],activates
same,receptor activation,[7],activates
Cn1c(=O)c2c(ncn2C)n(C)c1=O [Caffeine],half-life,[8],1.5 to 9.5 h
CC(=O)O[C@@]12CO[C@@H]1C[C@H](O)[C@@]1(C)C(=O)[C@H](O)C3=C(C)[C@@H](OC(=O)[C@H](O)[C@@H](NC(=O)OC(C)(C)C)c4ccccc4)C[C@@](O)([C@@H](OC(=O)c4ccccc4)[C@H]21)C3(C)C [docetaxel],M-2 metabolite formation,[9]; Cyp3a-/- microsomes,not recognized
same,M-2 metabolite formation,[9]; WT microsomes,efficiently formed
same,oral bioavailability,[10]; Cyp3a-/- mice,21.2%
same,oral bioavailability,[10]; WT mice,8.1%
same,"plasma docetaxel, Cyp3a-/- versus WT mice",[10]; after i.v. administration,6.8 fold
same,"plasma level of docetaxel, Cyp3a-/- versus WT mice",[10]; after oral administration,17.7 fold
same,docetaxel metabolism (KO phenotype),[10]; mice deficient for gene family Cyp3a,function are unable to metabolize docetaxel.
CC(=O)Nc1ccc(O)cc1 [acetaminophen],dose survived,[11],up to 400 mg/kg
same,mice that succumb to toxicity and die,[12],over 50%

# — patent publication US20160174533A1 (priority 2009, published 2016)
